Consider one compound from patent US6872805B2 (Bristol-Myers Squibb Company, priority 2000, dated 2005).

Assay [1] addresses T1, NS3/4A J4L6S strain (Hepatitis C virus genotype 1b, UniProt O92972, C1454S/C1711G).
T1 construct: DNA encoding the recombinant HCV NS3/4A protease complex (amino acid 1027 to 1711) for these strains; inferred from pET21b vector and Ni-NTA purification; made in house; host or cells: E. coli BL21 (DE3)
Put plainly: Recombinant HCV NS3/4A protease complex FRET peptide assay, J4L6S strain. It is filed as biochemical, HCV genotype 1b. From the text:
The purpose of this in vitro assay was to measure the inhibition of HCV NS3 protease complexes, derived from the BMS, H77C or J416S strains, as described below, by compounds of the present invention. This assay provides an indication of how effective compounds of the present invention would be in inhibiting HCV […] proteolytic activity.
Serum from an HCV-infected patient was obtained from Dr. T. Wright, San Francisco Hospital. An engineered full-length cDNA template of the HCV genome (BMS strain) was constructed from DNA fragments obtained by reverse transcription-PCR (RT-PCR) of serum RNA and using primers selected on the basis of homology between other genotype 1a strains. From the determination of the entire genome sequence, a genotype 1a was assigned to the HCV isolate according to the classification of Simmonds et al. (See P Simmonds, K A Rose, S Graham, S W Chan, F McOmish, B C Dow, E A Follett, P L Yap and H Marsden, J. Clin. Microbiol., 31(6), 1493-1503 (1993)). […] The infectious clones, H77C (1a genotype) and J4L6S (1b genotype) were obtained from R. Purcell (NIH) and the sequences are published in genebank (AAB67036, see Yanagi, M., Purcell, R. H., Emerson, S. U. and Bukh, J. Proc. Natl. Acad. Sci. U.S.A. 94(16),8738-8743 (1997); AF054247, see Yanagi, M., St Claire, M., Shapiro, M., Emerson, S. U., Purcell, R. H. and Bukh, J, Virology 244 (1), 161-172. (1998)). […]

In assay [2] the target is T2, porcine pancreatic elastase (Sus scrofa, UniProt P00772).
T2 construct: from tissue; host or cells: pancreas (from the enzyme's name only)
T2 sequence (P00772 27-266): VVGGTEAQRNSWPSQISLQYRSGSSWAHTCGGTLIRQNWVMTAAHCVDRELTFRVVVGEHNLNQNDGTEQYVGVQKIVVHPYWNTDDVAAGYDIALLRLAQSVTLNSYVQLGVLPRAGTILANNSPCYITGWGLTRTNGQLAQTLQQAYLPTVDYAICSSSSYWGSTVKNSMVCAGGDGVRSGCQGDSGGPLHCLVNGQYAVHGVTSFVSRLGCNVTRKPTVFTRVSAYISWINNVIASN
The assay is described as follows: Specificity assay, porcine pancreatic elastase. It is filed as biochemical. The following applies: read-out: PPE. The protocol: The specificities of compounds of the present invention were determined against a variety of serine proteases: human leukocyte elastase, porcine pancreatic elastase and bovine pancreatic α-chymotrypsin and one cysteine protease: human liver cathepsin B. In all cases a 96-well plate format protocol using calorimetric […] (pNA) substrate specific for each enzyme was used as described previously (Patent WO 00/09543) with some modifications.
Each assay included a 1 h enzyme-inhibitor pre-incubation at RT followed by addition of substrate and hydrolysis to ˜30% conversion as measured on a Spectramax Pro microplate reader. Compound concentrations varied from 100 to 0.4 μM depending on their potency.
The final conditions and protocol for each assay was as reported previously (Patent WO 00/09543) with the inclusion of an additional assay: • 50 mM Tris-HCl pH 8, 0.5M Na2SO4, 50 mM NaCl, 0.1 mM EDTA, 3% DMSO, 0.01% Tween-20 with 133 μM succ-AAA-PNA and 20 nM Elastase
The percentage of inhibition was calculated using the formula: [1−((UVinh−UVblank)/(UVctl−UVblank))]×100

pIC50: −log10 of the molar value.

T1 sequence (O92972 1027-1711 C1454S/C1711G): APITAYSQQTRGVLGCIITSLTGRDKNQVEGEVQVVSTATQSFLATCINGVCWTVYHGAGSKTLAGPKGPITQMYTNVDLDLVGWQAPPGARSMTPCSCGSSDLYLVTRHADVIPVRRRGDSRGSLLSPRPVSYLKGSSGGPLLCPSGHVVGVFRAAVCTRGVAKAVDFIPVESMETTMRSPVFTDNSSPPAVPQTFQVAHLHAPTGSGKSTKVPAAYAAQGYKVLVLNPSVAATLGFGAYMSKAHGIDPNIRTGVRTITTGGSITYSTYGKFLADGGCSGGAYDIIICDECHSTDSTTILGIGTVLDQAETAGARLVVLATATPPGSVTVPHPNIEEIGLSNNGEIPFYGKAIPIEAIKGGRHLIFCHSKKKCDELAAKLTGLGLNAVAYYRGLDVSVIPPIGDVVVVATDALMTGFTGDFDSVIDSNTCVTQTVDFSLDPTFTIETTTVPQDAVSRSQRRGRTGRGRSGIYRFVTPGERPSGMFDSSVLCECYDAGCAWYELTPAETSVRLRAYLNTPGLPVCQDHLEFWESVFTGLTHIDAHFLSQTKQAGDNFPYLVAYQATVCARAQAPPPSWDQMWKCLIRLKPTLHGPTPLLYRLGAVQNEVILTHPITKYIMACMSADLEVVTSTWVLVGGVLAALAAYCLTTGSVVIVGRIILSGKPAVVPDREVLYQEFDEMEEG

As for `C=CC1C[C@]1(NC(=O)[C@@H]1C[C@@H](Oc2cc(-c3ccccc3)nc3cc(OC)ccc23)CN1C(=O)C(NC(=O)OC(C)(C)C)C(C)(C)C)C(=O)NS(=O)(=O)c1ccc(NC(C)=O)cc1` (some centres unmarked) [Compound 58], the figures for the pIC50 in assay [1] and in assay [2] were 8.10 and below 4.00, respectively.
